The text below walks through data of patent US11319344B2, “Non-membrane disruptive P53 activating stapled peptides” (AGENCY FOR SCIENCE, TECHNOLOGY AND RESEARCH, priority 2015, dated 2022).

Like-named read-outs stand apart in the source and are kept apart here. *1 amine or outer side, *2 acyl side, *3 side chain or, on linkers, in order; H or OH if unused. Where a SMILES comes first, the peptide text is derived from it. Bridges are numbered along the chain shown (N, C = ends). [ ]: non-standard residue; d: D form. ξ: configuration not given here. ξαMeNle(6-ylidene) = CC(CCCC=[*:3])(N[*:1])C(=O)[*:2]; X1 = CC(CCCCCCC=[*:3])(N[*:1])C(=O)[*:2]; R8 = C=CCCCCCC[C@@](C)(N)C(=O)O; R5 = C=CCCC[C@@](C)(N)C(=O)O; S5 = C=CCCC[C@](C)(N)C(=O)O; Ahx = NCCCCCC(=O)O

The target of series [1] is N-terminal domain of Mdm2 (1-125) (Homo sapiens, UniProt Q00987). Put plainly: Competitive fluorescence anisotropy titration (apparent Kd). To be noted: for Kd stronger in comparison to sMTIDE-02: ratio to sMTIDE-02 Kd.
Description: In this assay, a N-terminally FAM labelled peptide of the sequence [sequence]
The cells expressing the Mdm2 GST fusion construct were grown in LB medium at 37° C. to an OD600 of ˜0.6 and induction was carried out with 1 mM isopropyl β-D-1-thiogalactopyranoside (IPTG) at room temperature. Cells were harvested by centrifugation and the cell pellets were resuspended in 50 mM Tris pH 8.0, 10% sucrose and then sonicated. The sonicated sample was centrifuged for 60 minutes at 17,000 g at 4° C. […] The column was then further washed by 6 volumes of wash buffer. Mdm2 were then purified from the column by cleavage with PreScission protease. 10 units of PreScission protease, in one column volume of PBS with 1 mM DTT buffer, were injected onto the column. The cleavage reaction was allowed to proceed overnight at 4° C. The cleaved protein was then eluted of the column with wash buffer. Protein fractions were analysed with SDS-PAGE and concentrated using a Centricon (3.5 kDa molecular weight cut-off (MWCO)) concentrator. The Mdm2 protein sample was then dialyzed into a buffer solution containing 20 mM Bis-Tris, pH 6.5, 0.05M NaCl with 1 mM DTT and loaded onto a monoS column pre-equilibrated in buffer A (20 mM Bis-Tris, pH 6.5, 1 mM DTT). The column was then washed in 6 column volumes of buffer A and bound protein was eluted with a linear gradient of 1M NaCl over 25 column volumes. Protein fractions were analysed with sodium dodecyl sulfate-polyacrylamide gel electrophoresis (SDS-PAGE) and concentrated using a Centricon (3.5 kDa molecular weight cut-off (MWCO)) concentrator.
Apparent dissociation constant (Kd) values were determined for a variety of molecules via competitive fluorescence anisotropy experiments. […] The competing molecules were then titrated against the complex of the FAM labelled peptide and protein. Apparent dissociation constant (Kd) values were determined by fitting the experimental data to the equations shown below:
[L]st and [L]t denote labelled ligand and total unlabelled ligand input concentrations, respectively. Kd2 is the dissociation constant of the interaction between the unlabelled ligand and the protein. In all competitive types of experiments, it is assumed that [P]t>[L]st, otherwise considerable amounts of free labelled ligand would always be present and would interfere with measurements. […] The FAM-labelled peptide was dissolved in dimethyl sulfoxide (DMSO) at 1 mM and diluted into experimental buffer. Readings were carried out with a Envision Multilabel Reader. […] All titrations were carried out in triplicate. Curve-fitting was carried out using Prism 4.0 (GraphPad). […]
The next series relates to ARN8 cells. Kind of series: Lactate dehydrogenase release assay, ARN8 cells. To be noted: 2 h, 50/25/12.5 μM, absence or presence of serum. The format is cell-based. The protocol:
(§1) The stapled YS-01/04 peptides were also screened for their ability to perturb the cell membrane wall of T22 and ARN8 cells and release cytosolic lactate dehydrogenase (LDH). An effect that is regarded as undesirable as this may indicate that the peptide is non-specifically toxic to different cell types. A short 2 hour time treatment period is used for this assay as it is assumed that perforation of the cell membrane occurs […] for cell programmed death. […] The lactate dehydrogenase leakage measured was much greater in ARN8 cells than T22 cells, showing that different cells vary in their sensitivities to the membrane disruptive properties of YS-03. […] This implies that p53 activation, which is also supported by the data for YS-04, does occur in the absence of membrane disruption and that the biological activity observed for is not a direct consequence of cellular toxicity.
(§2) T22 cells or ARN8 cells, both of which were stably transfected with a p53 responsive β-galactosidase reporter, were seeded into a 96-well plate at a cell density of 5000 cells per well. Cells were also maintained in Dulbecco's Minimal Eagle Medium (DMEM) with 10% fetal bovine serum (FBS) and penicillin/streptomycin. The cells were incubated for 24 hours and then treated with compounds/peptide for 2 hours in DMEM with or without 10% FBS. Cytosolic lactate dehydrogenase release was detected using the non-radioactive cytotoxicity Assay kit (Promega) as per manufacturer's instructions. Measurements were carried out using an Envision multiplate reader.

For a further series, the system named is T22 cells. Put plainly: Lactate dehydrogenase release assay, T22 cells. The format is cell-based. The note with it: 2 h, 50/25/12.5 μM, absence or presence of serum. Here is the method: as §1, §2
Series [2] is described as follows: Circular dichroism spectroscopy (helicity in solution). It counts as physicochemical. To be noted: peptide unbound in solution.
Series [3] deals with p53 transcriptional activity in T22 cells. Kind of series: T22 p53 β-galactosidase based reporter assay. It counts as cell-based, murine. The note with it: for IC50: T22 p53 reporter assay, 18 h; for ability to induce p53 activity in T22 reporter assay: with and without serum. The protocol:
The YS-01/04 peptides were screened in a murine T22-derived p53 reporter assay, either with or without fetal calf serum, to assess their ability to induce p53 transcriptional activity in intact cells (Table 1 and FIG. 3).
T22 cells, which were stably transfected with a p53 responsive β-galactosidase reporter, were seeded into 96-well plate at a cell density of 8000 cells per well. Cells were also maintained in Dulbecco's Minimal Eagle Medium (DMEM) with 10% fetal bovine serum (FBS) and penicillin/streptomycin. […] Measurements were carried out using a Safire II multiplate reader. Experiments were carried out independently twice.

The test system of series [4] is p53 transcriptional activity in ARN8 cells. Put plainly: ARN8 β-galactosidase based p53 reporter assay. The format is cell-based, Human. The note with it: 18 h; for p53 activation (β-galactosidase activity) in ARN8 cells: serum free. The protocol:
ARN8 cells contain the same β-galactosidase gene under the control of a p53 promoter that is stably transfected into T22 cells. […] The YS-07 and YS-09 titrations were again repeated and the lactate dehydrogenase leakage from ARN8 cells measured instead (FIGS. 8c and 8d).
ARN8 cells, which were stably transfected with a p53 responsive β-galactosidase reporter, were seeded into 96-well plate at a cell density of 8000 cells per well. Cells were also maintained in Dulbecco's Minimal Eagle Medium (DMEM) with 10% fetal bovine serum (FBS) and penicillin/streptomycin. […] Measurements were carried out using a Safire II multiplate reader. Experiments were carried out independently twice.

Where [5] appears, read: absence of serum, read-out: T22 IC50 (0% μM).
Setting [6] is: presence of 10% fetal calf serum, read-out: T22 Ic50 (10% μM).

Sequence of N-terminal domain of Mdm2 (1-125) (Q00987 1-125): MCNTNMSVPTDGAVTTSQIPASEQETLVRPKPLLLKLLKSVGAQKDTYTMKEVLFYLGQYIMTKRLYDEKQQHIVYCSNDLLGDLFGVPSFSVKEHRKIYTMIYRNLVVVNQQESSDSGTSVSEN

Turning to `CC(=O)N[C@H](C(=O)N[C@@H](CO)C(=O)N[C@@H](Cc1ccccc1)C(=O)N[C@]1(C)CCCC=CCCC[C@](C)(C(=O)N[C@@H](CC(C)C)C(=O)N[C@@H](CC(C)C)C(=O)N2CCC[C@H]2C(=O)N[C@@H](CCC(=O)O)C(=O)N[C@@H](CC(N)=O)C(=O)N[C@@H](Cc2ccccc2)C(N)=O)NC(=O)[C@H](Cc2c[nH]c3ccccc23)NC(=O)[C@H](Cc2ccc(O)cc2)NC(=O)[C@H](CCC(=O)O)NC1=O)[C@@H](C)O` [YS-01, Ac-^17TSFX5EYWX5LLPENF^30-NH2] (Ac-TSF[R5]EYW[R5]LLPENF-NH2; staple 4-8), the “Kd stronger in comparison to sMTIDE-02” value in series [1] is “approximately 3 fold”.

For the molecule `CC(=O)N[C@H](C(=O)N[C@@H](CO)C(=O)N[C@@H](Cc1ccccc1)C(=O)NC1(C)CCCC=CCCCC(C)(C(=O)N[C@@H](CC(C)C)C(=O)N[C@@H](CC(C)C)C(=O)N2CCC[C@H]2C(=O)N[C@@H](CCC(=O)O)C(=O)N[C@@H](CC(N)=O)C(=O)N[C@@H](Cc2ccc(O)cc2)C(N)=O)NC(=O)[C@H](Cc2c[nH]c3ccccc23)NC(=O)[C@H](Cc2ccc(O)cc2)NC(=O)[C@H](CCC(=O)O)NC1=O)[C@@H](C)O` (stereo partly shown) [YS-02, Ac-^17TSFX5EYWX5LLPENY^30-NH2] (Ac-TSF[ξαMeNle(6-ylidene)]EYW[ξαMeNle(6-ylidene)]LLPENY-NH2; staple 4-8), the “cytosolic lactate dehydrogenase (LDH) release” value in the series with ARN8 cells and in the series with T22 cells was “negligible lactate dehydrogenase release” throughout. The “Kd stronger in comparison to sMTIDE-02” value in series [1] is reported as “approximately 3 fold”.

In the case of `CC(=O)N[C@H](C(=O)N[C@@H](CO)C(=O)N[C@@H](Cc1ccccc1)C(=O)NC1(C)CCCCCCC=CCCCC(C)(C(=O)N[C@@H](CCC(=O)O)C(=O)N[C@@H](CC(N)=O)C(=O)N[C@@H](Cc2ccc(O)cc2)C(N)=O)NC(=O)[C@H](CC(C)C)NC(=O)[C@H](CC(C)C)NC(=O)[C@H](C)NC(=O)[C@H](Cc2c[nH]c3ccccc23)NC(=O)[C@H](Cc2ccc(O)cc2)NC(=O)[C@H](CCC(=O)O)NC1=O)[C@@H](C)O` (stereo partly shown) [YS-04, Ac-^17TSFX8EYWALLS5ENY^30-NH2], the “helicity in solution (CD spectra)” value in series [2] was “significantly more helical in character in solution than YS-01 and YS-02”. The results for the IC50 in series [3] (setting [5]) and in series [3] (setting [6]) were 9.73 µM and 78.3 µM, respectively. The “ability to induce p53 activity in T22 reporter assay” value (“ability to induce p53 activity” below) in series [3] was “greater potency in the T22 assay than YS-01 and YS-02”. Besides, the “Kd weaker than the i,i+4 analogue peptides (YS-01 and YS-02)” value in series [1] (ratio to YS-01/YS-02 Kd) is “approximately 2 fold”.

Take `CC(=O)N[C@H](C(=O)N[C@@H](CO)C(=O)N[C@@H](Cc1ccccc1)C(=O)NC1(C)CCCC=CCCCC(C)(C(=O)N[C@@H](CC(C)C)C(=O)N[C@@H](CC(C)C)C(=O)N[C@@H](CO)C(=O)N[C@@H](CCC(=O)O)C(=O)N[C@@H](CC(N)=O)C(=O)N[C@@H](Cc2ccccc2)C(N)=O)NC(=O)[C@H](Cc2c[nH]c3ccccc23)NC(=O)[C@H](Cc2ccc(O)cc2)NC(=O)[C@H](CCC(=O)O)NC1=O)[C@@H](C)O` (stereo partly shown) [YS-05, Ac-^17TSFX5EYWX5LLSENF^30-NH2] (Ac-TSF[ξαMeNle(6-ylidene)]EYW[ξαMeNle(6-ylidene)]LLSENF-NH2; staple 4-8): the “cytosolic lactate dehydrogenase (LDH) release” value in the series with ARN8 cells and in the series on T22 cells was “negligible activity” each time. Also, the “helicity in solution (CD spectra)” value in series [2] is “significantly more helical structure”. The “ability to induce p53 activity” value in series [3] is listed as “improvement of both peptides to activate p53”.

For the molecule `CC(=O)N[C@H](C(=O)N[C@@H](CO)C(=O)N[C@@H](Cc1ccccc1)C(=O)N[C@]1(C)CCCC=CCCC[C@](C)(C(=O)N[C@@H](CC(C)C)C(=O)N[C@@H](CC(C)C)C(=O)N[C@@H](CO)C(=O)N[C@@H](CCC(=O)O)C(=O)N[C@@H](CC(N)=O)C(=O)N[C@@H](Cc2ccc(O)cc2)C(N)=O)NC(=O)[C@H](Cc2c[nH]c3ccccc23)NC(=O)[C@H](Cc2ccc(O)cc2)NC(=O)[C@H](CCC(=O)O)NC1=O)[C@@H](C)O` [YS-06, Ac-^17TSFX5EYWX5LLSENY^30-NH2] (Ac-TSF[R5]EYW[R5]LLSENY-NH2; staple 4-8), in series [2], the “helicity in solution (CD spectra)” value is recorded as “significantly more helical structure”. Moreover, the “ability to induce p53 activity” value in series [3] was “improvement of both peptides to activate p53”.

As for `CC(=O)N[C@@H](CCCCN)C(=O)N[C@@H](CCCCN)C(=O)NCCCCCC(=O)N[C@H](C(=O)N[C@@H](CO)C(=O)N[C@@H](Cc1ccccc1)C(=O)N[C@]1(C)CCCCCCC=CCCC[C@@](C)(C(=O)N[C@@H](CCC(=O)O)C(=O)N[C@@H](CC(N)=O)C(=O)N[C@@H](Cc2ccccc2)C(N)=O)NC(=O)[C@H](CC(C)C)NC(=O)[C@H](CC(C)C)NC(=O)[C@H](C)NC(=O)[C@H](Cc2c[nH]c3ccccc23)NC(=O)[C@H](Cc2ccc(O)cc2)NC(=O)[C@H](CCC(=O)O)NC1=O)[C@@H](C)O` [YS-07, Ac-KK-Ahx-^17TSFX8EYWALLS5ENF^30-NH2] (Ac-KK[Ahx]TSF[R8]EYWALL[S5]ENF-NH2; staple 7-14), the “p53 activation (β-galactosidase activity) in ARN8 cells” value in series [4] was “efficiently induced β-galactosidase activity”. Also, the values for the 50% inhibitory concentration (IC50) in series [3] (setting [5]) and in series [3] (setting [6]) were about 0.78 µM and 9.95 µM, respectively. The “ability to induce p53 activity” value in series [3] is given as “most potent”.

As for `CC(=O)N[C@@H](CCCCN)C(=O)N[C@@H](CCCCN)C(=O)NCCCCCC(=O)N[C@H](C(=O)N[C@@H](CO)C(=O)N[C@@H](Cc1ccccc1)C(=O)N[C@]1(C)CCCCCCC=CCCC[C@@](C)(C(=O)N[C@@H](CCC(=O)O)C(=O)N[C@@H](CC(N)=O)C(=O)N[C@@H](Cc2ccc(O)cc2)C(N)=O)NC(=O)[C@H](CC(C)C)NC(=O)[C@H](CC(C)C)NC(=O)[C@H](C)NC(=O)[C@H](Cc2c[nH]c3ccccc23)NC(=O)[C@H](Cc2ccc(O)cc2)NC(=O)[C@H](CCC(=O)O)NC1=O)[C@@H](C)O` [YS-08, Ac-KK-Ahx-^17TSFX8EYWALLS5ENY^30-NH2] (Ac-KK[Ahx]TSF[R8]EYWALL[S5]ENY-NH2; staple 7-14), the IC50 was 7.29 µM in series [3] (setting [5]) and 23.4 µM in series [3] (setting [6]). Also, the “ability to induce p53 activity” value in series [3] is “least potent amongst the four peptides”.

For `CC(=O)N[C@@H](CCCNC(=N)N)C(=O)N[C@@H](CCCNC(=N)N)C(=O)N[C@@H](CCCNC(=N)N)C(=O)NCCCCCC(=O)N[C@H](C(=O)N[C@@H](CO)C(=O)N[C@@H](Cc1ccccc1)C(=O)NC1(C)CCCCCCC=CCCCC(C)(C(=O)N[C@@H](CCC(=O)O)C(=O)N[C@@H](CC(N)=O)C(=O)N[C@@H](Cc2ccccc2)C(N)=O)NC(=O)[C@H](CC(C)C)NC(=O)[C@H](CC(C)C)NC(=O)[C@H](C)NC(=O)[C@H](Cc2c[nH]c3ccccc23)NC(=O)[C@H](Cc2ccc(O)cc2)NC(=O)[C@H](CCC(=O)O)NC1=O)[C@@H](C)O` (stereo partly shown) [YS-09, Ac-RRR-Ahx-^17TSFX8EYWALLS5ENF^30-NH2] (Ac-RRR[Ahx]TSF[X1]EYWALL[ξαMeNle(6-ylidene)]ENF-NH2; staple 8-15), the “p53 activation in ARN8 cells” value in series [4] (10% serum) is on record as “slightly more activity than YS-07”. Further, the “p53 activation (β-galactosidase activity) in ARN8 cells” value in series [4] is recorded as “sharp burst of p53 transcriptional activity at 3.125 μM followed by a sharp decline at higher concentrations”. For the same molecule, the values for the IC50 in series [3] (setting [5]) and in series [3] (setting [6]) were 1.98 µM and 11.6 µM, respectively.

Regarding `CC(=O)N[C@@H](CCCNC(=N)N)C(=O)N[C@@H](CCCNC(=N)N)C(=O)N[C@@H](CCCNC(=N)N)C(=O)NCCCCCC(=O)N[C@H](C(=O)N[C@@H](CO)C(=O)N[C@@H](Cc1ccccc1)C(=O)NC1(C)CCCCCCC=CCCCC(C)(C(=O)N[C@@H](CCC(=O)O)C(=O)N[C@@H](CC(N)=O)C(=O)N[C@@H](Cc2ccc(O)cc2)C(N)=O)NC(=O)[C@H](CC(C)C)NC(=O)[C@H](CC(C)C)NC(=O)[C@H](C)NC(=O)[C@H](Cc2c[nH]c3ccccc23)NC(=O)[C@H](Cc2ccc(O)cc2)NC(=O)[C@H](CCC(=O)O)NC1=O)[C@@H](C)O` (stereo partly shown) [YS-10, Ac-RRR-Ahx-^17TSFX8EYWALLS5ENY^30-NH2] (Ac-RRR[Ahx]TSF[X1]EYWALL[ξαMeNle(6-ylidene)]ENY-NH2; staple 8-15), the IC50 worked out at 1.69 µM in series [3] (setting [5]) and 17.9 µM in series [3] (setting [6]).
